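Each compound was tested at five concentrations against cells in 96-well plates for 48 hours. At the GI50, growth is halved.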 The source made the active and inactive calls. Rule as the data show it: active = GI50 up to about 1.1 µM and inactive = higher.
How the values were obtained:
Assay in all cases: NCI-60 cell line screen, 48 h
M14 = tested on: M14
Malme-3M = tested on: Malme-3M
MDA-MB-231 = tested on: MDA-MB-231
SNB-19 = tested on: SNB-19
HT-29 = tested on: HT-29
IGROV-1 = tested on: IGROV-1
A549 = tested on: A549
SF-295 = tested on: SF-295
U-251 = tested on: U-251
SK-MEL-2 = tested on: SK-MEL-2
CAKI-1 = tested on: CAKI-1
SK-MEL-28 = tested on: SK-MEL-28
SF-268 = tested on: SF-268
T47D = tested on: T47D
HCC 2998 = tested on: HCC 2998
HCT-116 = tested on: HCT-116
NCI-H226 = tested on: NCI-H226
NCI-H522 = tested on: NCI-H522
SR = tested on: SR
OVCAR-5 = tested on: OVCAR-5
A498 = tested on: A498
HOP-62 = tested on: HOP-62
SK-MEL-5 = tested on: SK-MEL-5
SK-OV-3 = tested on: SK-OV-3
SW-620 = tested on: SW-620
EKVX = tested on: EKVX
COLO 205 = tested on: COLO 205
RXF 393 = tested on: RXF 393
OVCAR-3 = tested on: OVCAR-3
K562 = tested on: K562
CCRF-CEM = tested on: CCRF-CEM
SNB-75 = tested on: SNB-75
MCF7 = tested on: MCF7
UACC-257 = tested on: UACC-257
PC-3 = tested on: PC-3
786-0 = tested on: 786-0
Hs-578T = tested on: Hs-578T
OVCAR-4 = tested on: OVCAR-4
KM12 = tested on: KM12
HCT-15 = tested on: HCT-15
HL-60 = tested on: HL-60
ACHN = tested on: ACHN
DU-145 = tested on: DU-145
SF-539 = tested on: SF-539
NCI-H460 = tested on: NCI-H460
MOLT-4 = tested on: MOLT-4
UACC-62 = tested on: UACC-62
RPMI-8226 = tested on: RPMI-8226
SN12C = tested on: SN12C
MDA-MB-435 = tested on: MDA-MB-435
OVCAR-8 = tested on: OVCAR-8
MDA-N = tested on: MDA-N
UO-31 = tested on: UO-31
TK-10 = tested on: TK-10
LOX IMVI = tested on: LOX IMVI
HOP-92 = tested on: HOP-92
NCI/ADR-RES = tested on: NCI/ADR-RES
NCI-H23 = tested on: NCI-H23
BT-549 = tested on: BT-549

COC(=O)C1=C(OC(=O)/C(=C/c2ccc(Cl)cc2)c2ccc(Cl)cc2)C(C(=O)OC)[C@@]2(O)[C@@H](C(=O)OC)[C@H](C)C[C@@H]1[C@@H]2C(=O)OC (some centres not stated)
GI50 (M14): > 100 µM (inactive) | GI50 (Malme-3M): 29 µM (inactive) | GI50 (MDA-MB-231): > 71.9 µM (inactive) | GI50 (SNB-19): 16.4 µM (inactive) | GI50 (HT-29): > 61 µM (inactive) | GI50 (IGROV-1): 27.6 µM (inactive) | GI50 (A549): 11.5 µM (inactive) | GI50 (SF-295): 3.22 µM (inactive) | GI50 (U-251): 17.8 µM (inactive) | GI50 (SK-MEL-2): > 92.7 µM (inactive) | GI50 (CAKI-1): > 100 µM (inactive) | GI50 (SK-MEL-28): > 100 µM (inactive) | GI50 (SF-268): 35 µM (inactive) | GI50 (T47D): > 74 µM (inactive) | GI50 (HCC 2998): > 73.6 µM (inactive) | GI50 (HCT-116): 31.6 µM (inactive) | GI50 (NCI-H226): > 100 µM (inactive) | GI50 (NCI-H522): 3.87 µM (inactive) | GI50 (SR): > 63.2 µM (inactive) | GI50 (OVCAR-5): > 21 µM (inactive) | GI50 (A498): > 100 µM (inactive) | GI50 (HOP-62): > 100 µM (inactive) | GI50 (SK-MEL-5): > 100 µM (inactive) | GI50 (SK-OV-3): > 100 µM (inactive) | GI50 (SW-620): 78.2 µM (inactive) | GI50 (EKVX): 10.6 µM (inactive) | GI50 (COLO 205): > 76.4 µM (inactive) | GI50 (RXF 393): > 61.4 µM (inactive) | GI50 (OVCAR-3): > 45.8 µM (inactive) | GI50 (K562): 2.33 µM (inactive) | GI50 (CCRF-CEM): > 37.2 µM (inactive) | GI50 (SNB-75): > 56 µM (inactive) | GI50 (MCF7): 58.6 µM (inactive) | GI50 (UACC-257): > 83.6 µM (inactive) | GI50 (PC-3): 12.6 µM (inactive) | GI50 (786-0): > 100 µM (inactive) | GI50 (Hs-578T): 39.4 µM (inactive) | GI50 (OVCAR-4): 50.8 µM (inactive) | GI50 (KM12): 11 µM (inactive) | GI50 (HCT-15): > 81.3 µM | GI50 (HL-60): > 100 µM (inactive) | GI50 (ACHN): 25.9 µM (inactive) | GI50 (DU-145): > 100 µM (inactive) | GI50 (SF-539): > 100 µM (inactive) | GI50 (NCI-H460): 14.3 µM (inactive) | GI50 (MOLT-4): 0.328 µM (active) | GI50 (UACC-62): > 100 µM (inactive) | GI50 (RPMI-8226): 18 µM (inactive) | GI50 (SN12C): > 100 µM (inactive) | GI50 (MDA-MB-435): > 100 µM (inactive) | GI50 (OVCAR-8): 25.1 µM (inactive) | GI50 (MDA-N): > 100 µM (inactive) | GI50 (UO-31): > 100 µM (inactive) | GI50 (TK-10): > 100 µM (inactive) | GI50 (LOX IMVI): > 100 µM (inactive) | GI50 (HOP-92): 6.67 µM (inactive) | GI50 (NCI/ADR-RES): 17.2 µM (inactive) | GI50 (NCI-H23): 25.2 µM (inactive)

O=CC1C(=O)Nc2nc3ccccc3n2C1c1ccccc1 (configuration not stated)
GI50 (M14): 16 µM (inactive) | GI50 (Malme-3M): 18.8 µM (inactive) | GI50 (MDA-MB-231): 15.4 µM (inactive) | GI50 (HT-29): 20.4 µM (inactive) | GI50 (IGROV-1): 13.9 µM (inactive) | GI50 (A549): 23.3 µM (inactive) | GI50 (SF-295): 20.9 µM (inactive) | GI50 (U-251): 14.4 µM (inactive) | GI50 (SK-MEL-2): 17.3 µM (inactive) | GI50 (CAKI-1): 21.1 µM (inactive) | GI50 (SK-MEL-28): 19.6 µM (inactive) | GI50 (SF-268): 12.1 µM (inactive) | GI50 (T47D): < 0.01 µM (active) | GI50 (HCT-116): 12.4 µM (inactive) | GI50 (NCI-H226): 17.1 µM (inactive) | GI50 (NCI-H522): 12.8 µM (inactive) | GI50 (OVCAR-5): 25.2 µM (inactive) | GI50 (A498): 14.3 µM (inactive) | GI50 (HOP-62): 5.06 µM (inactive) | GI50 (SK-MEL-5): 14.6 µM (inactive) | GI50 (SW-620): 17.8 µM (inactive) | GI50 (EKVX): 22.5 µM (inactive) | GI50 (COLO 205): 11.4 µM (inactive) | GI50 (RXF 393): 0.183 µM (active) | GI50 (OVCAR-3): 7.89 µM (inactive) | GI50 (K562): 4.37 µM (inactive) | GI50 (CCRF-CEM): 4.38 µM (inactive) | GI50 (SNB-75): 5.75 µM (inactive) | GI50 (BT-549): 14.1 µM (inactive) | GI50 (MCF7): 10.6 µM (inactive) | GI50 (UACC-257): 15 µM (inactive) | GI50 (PC-3): 18.4 µM (inactive) | GI50 (786-0): 12.4 µM (inactive) | GI50 (Hs-578T): 31.6 µM (inactive) | GI50 (OVCAR-4): 24.7 µM (inactive) | GI50 (KM12): 14.6 µM (inactive) | GI50 (HCT-15): 15.1 µM | GI50 (HL-60): 20.6 µM (inactive) | GI50 (ACHN): 17.3 µM (inactive) | GI50 (DU-145): 12.7 µM (inactive) | GI50 (SF-539): 17.9 µM (inactive) | GI50 (NCI-H460): 29.4 µM (inactive) | GI50 (MOLT-4): 0.258 µM (active) | GI50 (UACC-62): 15.7 µM (inactive) | GI50 (RPMI-8226): 16.3 µM (inactive) | GI50 (SN12C): 5.7 µM (inactive) | GI50 (MDA-MB-435): 17.9 µM (inactive) | GI50 (OVCAR-8): 11.7 µM (inactive) | GI50 (UO-31): 13.7 µM (inactive) | GI50 (TK-10): 28.6 µM (inactive) | GI50 (LOX IMVI): 11.1 µM (inactive) | GI50 (HOP-92): 12.4 µM (inactive) | GI50 (NCI/ADR-RES): 54.7 µM (inactive) | GI50 (NCI-H23): 19.2 µM (inactive)

— ChEMBL document CHEMBL1201862, “PubChem BioAssay data set” (2004)
